A short description of this data set: xn = mol fraction of the nth substance listed. The conditions noted are these: 101 kPa.

Values joined by “and” are separate entries in the source; they are usually repeats but may differ in a detail not shown here. Equal entries are not always repeated.

What is called viscosity is the internal friction of a fluid under shear. Take `O` + CCCC[n+]1ccn(C)c1.[Br-]: the electrical conductivity (288.15 K, x2 = 0) worked out at 0.0001 S/m; the electrical conductivity (298.15 K, x2 = 0) amounted to 0.0001 S/m; the electrical conductivity (308.15 K, x2 = 0) was 0.0002 S/m. This compound displayed a viscosity (288.15 K, x2 = 0) of 1.133 mPa·s.
Consider `CCCC[n+]1ccn(C)c1.[Br-]` + O, for which the electrical conductivity is 0.0311 S/m and 0.0454 S/m and 0.0612 S/m (288.15 K, x1 = 0.0001); 0.0389 S/m and 0.0568 S/m and 0.0759 S/m (298.15 K, x1 = 0.0001); 0.069 S/m (308.15 K, x1 = 0.0001). Moreover, the viscosity (298.15 K, x1 = 0.0001) was 0.892 mPa·s and 0.894 mPa·s; the viscosity (308.15 K, x1 = 0.0001) turned out to be 0.731 mPa·s.

For the origin of these results see a compilation of properties of binary mixtures (doi:10.1016/j.molliq.2017.08.056).
